By Solubility is commonly meant how much of the substance goes into solution per volume.

We go through 3 molecules from patent publication US9333234B2, “Combination of somatostatin-analogs with 11beta-hydroxylase inhibitors” (Novartis AG, priority 2012, dated 2016).

Data set [1] can be described thus: Solubility and stability in water at 0.1% target concentration, 50° C. In kind it is physicochemical. Particulars: for stability / behaviour in water: 2 days at 50° C.
Data set [2] concerns patients with Cushing's disease. Here is the method: Dose escalation was planned every 2 weeks to 5, 10, 20 and 50 mg bid until UFC normalized, in which case the dose was maintained until day 70, when treatment stopped. Dose reduction for tolerability was permitted. UFC was assessed on the penultimate day of each 2-week period. Patients were monitored until day 84. The primary endpoint was UFC≦ULN or a ≧50% decrease from baseline at day 70 using the mean of 3 UFC samples collected during the week before day 70.

Data set [3] can be described thus: Solubility profile, excess solids equilibrated in each solvent. In kind it is physicochemical. Here is the method:
Excess solids were equilibrated in each solvent for over 24 hours at 25° C.±0.1. Concentration in supernatant was measured by gravimetry for organic solvents and by HPLC from aqueous solvents and propylene glycol.

The subject of data set [4] is Wistar Hannover rats. The format is in vivo. Particulars: for Serum corticosterone, Change from Control (%): Female rats; for Effects on serum corticosterone (PD marker), in words: compared to control. An excerpt:
Another group of rats (10/sex) received daily doses of Ultrapure water, by oral gavage, and the Acetate buffered solution pH 4.5 for injection USP, by subcutaneous injection, and served as controls.
Study activities included clinical examinations, involving twice daily exams for mortality and signs of ill health or reaction to treatment, daily pre-dose and 1-hour post dose cage-side observations, weekly detailed examination, body weights and food consumption, two ophthalmic examinations (pretreatment and week 13), clinical pathology (hematology, coagulation and clinical biochemistry, urinalysis) and immunology at the end of dosing (Adrenocorticotropic hormone, Corticosterone, Growth hormone, Insulin-like growth factor and urinalysis for Corticosterone). […] Post mortem evaluation included macroscopic observations, organ weight assessments (absolute and relative to body) and microscopic examinations.

Data set [5] in a line: Hygroscopicity, sorption/desorption isotherms (VTI 100 humidity microbalance). The format is physicochemical. Particulars: 25° C. Here is the method: Sorption/desorption isotherms were measured using the VTI 100 humidity microbalance (VTI Corporation, Hialeah, Fla., USA). Measurements were carried out at 25° C. Samples were dried under N2 flow at 25° C.
Data set [6] has as its system Cushing's disease patients. Particulars: Colao et al. N Engl J Med 2012; 366:32-42; cited from earlier work.
The mark [7] stands for this setting: of the 9 patients who completed the active treatment phase.
Where [8] appears, read: patients with Cushing's disease.
[9] abbreviates: Female rats (n = 10), dose 20/— (COMPOUND A 20 mg/kg/day alone).
The mark [10] stands for this setting: Male rats (n = 10), dose 20/— (COMPOUND A 20 mg/kg/day alone).
The mark [11] stands for this setting: Female rats (n = 10), dose —/0.3 (SOM230 0.3 mg/kg/day alone).
Where [12] appears, read: Male rats (n = 10), dose —/0.3 (SOM230 0.3 mg/kg/day alone).

Like-named read-outs stand apart in the source and are kept apart here. Numbered stars: 1 amine (or outer) side, 2 acyl side, 3 side chain; on linkers, the order of the positions; unused ones are H or OH. Square brackets hold non-standard residues; d marks the D form. Side chains are listed from the residue outwards. Peptide text beside a SMILES is read from it. * marks the point of attachment. Ethylenediamine = C(CN[*:2])N[*:1]; Hyp = O=C(O)[C@@H]1C[C@@H](O)CN1; Phg = N[C@H](C(=O)O)c1ccccc1; CO = O=C([*:1])[*:2]; Bn = c1ccc(C*)cc1

With `N#Cc1ccc([C@H]2CCc3cncn32)c(F)c1` [Compound A, (R)-4-(6,7-Dihydro-5H-pyrrolo[1,2-c]imidazol-5-yl)-3-fluoro-benzonitrile], in data set [1], the “solubility in water at the 0.1% target concentration” value is given as “largely insoluble” and the “stability / behaviour in water” value is recorded as “converted from a free flowing solid into an oily material”. Also, in data set [2] (10-week trial), the “ACTH level doubled, share of patients” value is reported as “half of the patients” and the “effect on urinary free cortisol (UFC)” value is recorded as “successfully reduced urinary free cortisol (UFC) in all patients”. In addition, in data set [2] (12 patients enrolled), the “adverse event fatigue (patients)” value is 7/12, the “adverse event headache (patients)” value is given as 3/12, the “adverse event nausea (patients)” value is given as 4/12 and the “patients with ACTH levels >2× baseline” value is given as “Five”. The “patients with study drug-related hypokalemia (K+<3.5 mmol/L)” value in data set [2] (12 patients enrolled) is listed as “Four”. Also, the “mean SBP decrease from baseline” value in data set [2] (day 70) is listed as 13.1 mmHg. For the same molecule, the “patients with UFC >ULN after treatment discontinuation” value in data set [2] (measurements at day 84) amounted to 6 patients. Also, in data set [2] (setting [7]), the “patients achieving primary endpoint (UFC≦ULN or ≧50% decrease from baseline at day 70)” value stood at 9 patients and the “patients with normal UFC levels on day 70” value stood at 8 patients. Moreover, in data set [2] (oral, 2-50 mg bid dose escalation), the “patients with normal UFC levels on at least one assessment during the study” value is listed as 11 of 11. Moreover, in data set [2] (setting [8]), the efficacy conclusion result is reported as “demonstrated efficacy” and the “tolerability / safety profile” value is “satisfactory safety profile”. Further, in data set [2] (patients with Cushing's disease, listed as COMPOUND A), the “tolerability / safety profile” value is listed as “generally well tolerated”. Also, the Solubility in data set [3] (Ethanol, over 24 hours at 25° C.) is above 50 mg/mL. This molecule also yielded a Solubility in data set [3] (Ethyl Acetate, over 24 hours at 25° C.) above 50 mg/mL. Further, in data set [3] (organic solvent or mixture, thermodynamic from solid, Acetone, over 24 hours at 25° C., read-out: Solubility), the Solubility is above 50 mg/mL. For the same molecule, the Solubility in data set [3] (simulated gastric fluid, thermodynamic from solid, pH 1, over 24 hours at 25° C., read-out: Solubility) is above 50 mg/mL. In addition, in data set [4] (setting [9]), the “Absolute adrenal weights” value stood at 0.07002 g and the “Mean serum corticosterone level” value was found to be 166.76. Besides, the “Serum corticosterone, Change from Control (%)” value in data set [4] (dose 20/— (COMPOUND A 20 mg/kg/day alone)) was −36%. In data set [4] (setting [10]), the “Absolute adrenal weights” value came to 0.04969 g and the “Mean serum corticosterone level” value came to 221.83. Further, the adrenalcortical hypertrophy result in data set [4] (female rats) is on record as “produced adrenalcortical hypertrophy”. For the same molecule, the “Effects on serum corticosterone (PD marker), in words” value in data set [4] (rats) was “decreases in serum corticosterone in females only”. Also, in data set [4] (rats, more pronounced in females), the “Effects on adrenal gland organ weights, in words” value is “increased adrenal gland organ weights”.
With `N#Cc1ccc([C@H]2CCc3cncn32)c(F)c1.O=P(O)(O)O` [Phosphate salt, Phosphate Salt of 4-(R)-6,7-dihydro-5H-pyrrolo[1,2-c]imidazol-5-yl-3-fluoro-benzonitrile (Form A)], the “solubility in water at the 0.1% target concentration” value in data set [1] is on record as “soluble”. Further, the “stability / behaviour in water” value in data set [1] is given as “stable”. The “hygroscopicity, water uptake” value in data set [5] (5% RH) is 0%; in data set [5] (75% relative humidity), 0.9%. The Solubility was above 50 mg/mL in data set [3] (Water, over 24 hours at 25° C.); above 50 mg/mL in data set [3] (pH 1, over 24 hours at 25° C.); above 50 mg/mL in data set [3] (pH 6.8, over 24 hours at 25° C.).
Take `NCCCC[C@@H]1NC(=O)[C@@H](Cc2c[nH]c3ccccc23)NC(=O)[C@H](c2ccccc2)NC(=O)[C@@H]2C[C@@H](OC(=O)NCCN)CN2C(=O)[C@H](Cc2ccccc2)NC(=O)[C@H](Cc2ccc(OCc3ccccc3)cc2)NC1=O` [SOM230, cyclo[{4-(NH2—C2H4—NH—CO—O-)Pro}-Phg-DTrp-Lys-Tyr(4-Bzl)-Phe], reference compound] (cyclo([Hyp]([CO-Ethylenediamine])[Phg][dW]KY(Bn)F)): the “cortisol levels in Cushing's disease patients” value in data set [6] is given as “significant decrease of cortisol levels”. In data set [4] (setting [11]), the “Absolute adrenal weights” value is given as 0.04585 g, the “Mean serum corticosterone level” value is given as 190.56 and the “Relative adrenal weight (% of body weight)” value was 0.02432 % of body weight. Besides, in data set [4] (dose —/0.3 (SOM230 0.3 mg/kg/day alone)), the “Serum corticosterone, Change from Control (%)” value is given as −27%. In data set [4] (setting [12]), the “Absolute adrenal weights” value is recorded as 0.03615 g, the “Mean serum corticosterone level” value is 233.68 and the “Relative adrenal weight (% of body weight)” value is listed as 0.01326 % of body weight. The “Effects on serum corticosterone (PD marker), in words” value in data set [4] (rats) is listed as “decreases in serum corticosterone in females only”.
